PubChem BioAssay (NCI)
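Each compound was tested at five concentrations against cells in 96-well plates for 48 hours. Abbreviation: GI50, concentration required for 50% inhibition of growth. TGI denotes the concentration required for complete inhibition of growth.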

Legend:
Assay in all cases: NCI-60 cell line screen, 48 h
[1] = tested on: MDA-MB-231 breast
[2] = tested on: RXF 393 renal
[3] = tested on: M14 melanoma
[4] = tested on: SK-MEL-28 melanoma
[5] = tested on: ACHN renal
[6] = tested on: MCF7 breast
[7] = tested on: NCI-H226 lung
[8] = tested on: DU-145 prostate
[9] = tested on: MOLT-4 leukemia
[10] = tested on: A549 NSCLC
[11] = tested on: A498 renal
[12] = tested on: HCT-116 colon
[13] = tested on: NCI/ADR-RES ovarian
[14] = tested on: SK-MEL-5 melanoma
[15] = tested on: LOX IMVI melanoma
[16] = tested on: SF-268 CNS
[17] = tested on: SW-620 colon
[18] = tested on: KM12 colon
[19] = tested on: HCC-2998 colon
[20] = tested on: MDA-MB-435
[21] = tested on: K-562 leukemia
[22] = tested on: CAKI-1 renal
[23] = tested on: NCI-H522 lung
[24] = tested on: HOP-92 NSCLC
[25] = tested on: HOP-62 NSCLC
[26] = tested on: COLO 205 colon
[27] = tested on: UACC-257 melanoma
[28] = tested on: UACC-62 melanoma

Structure (SMILES): O=C(CN1N=C(c2ccc(F)cc2)CCC1=O)Nc1nc2ccccc2s1
- GI50 [1]: 1.24 µM
- TGI [1]: 3.47 µM
- GI50 [2]: 5.91 µM
- TGI [2]: > 55.9 µM
- GI50 [3]: 33.2 µM
- TGI [3]: > 100 µM
- GI50 [4]: > 100 µM
- TGI [4]: > 100 µM
- GI50 [5]: 4.23 µM
- TGI [5]: > 100 µM
- GI50 [6]: 50.1 µM
- TGI [6]: > 100 µM
- GI50 [7]: 69.7 µM
- TGI [7]: > 100 µM
- GI50 [8]: > 25.6 µM
- TGI [8]: > 100 µM
- GI50 [9]: 7.61 µM
- TGI [9]: 31.5 µM
- GI50 [10]: 13.7 µM
- TGI [10]: > 100 µM
- GI50 [11]: 22.8 µM
- TGI [11]: > 100 µM
- GI50 [12]: 46.9 µM
- TGI [12]: > 100 µM
- GI50 [13]: > 28.2 µM
- TGI [13]: > 100 µM
- GI50 [14]: > 93.2 µM
- TGI [14]: > 100 µM
- GI50 [15]: 0.179 µM
- TGI [15]: 0.344 µM
- GI50 [16]: 5.59 µM
- TGI [16]: > 35.9 µM
- GI50 [17]: > 49.5 µM
- TGI [17]: > 100 µM
- GI50 [18]: > 25.9 µM
- TGI [18]: > 100 µM
- GI50 [19]: > 100 µM
- TGI [19]: > 100 µM
- GI50 [20]: > 73.5 µM
- TGI [20]: > 100 µM
- GI50 [21]: 5.32 µM
- TGI [21]: > 100 µM
- GI50 [22]: 0.583 µM
- TGI [22]: 1.76 µM
- GI50 [23]: 0.187 µM
- TGI [23]: 0.371 µM
- GI50 [24]: 1.31 µM
- TGI [24]: 2.84 µM
- TGI [25]: > 100 µM
- GI50 [26]: > 100 µM
- TGI [26]: > 100 µM
- GI50 [27]: > 100 µM
- TGI [27]: > 100 µM
- GI50 [28]: 7.62 µM
- TGI [28]: > 100 µM
